The values below come from ChEMBL document CHEMBL4483862, “Open-source discovery of chemical leads for next-generation chemoprotective antimalarials” (2018).

The test concerns Plasmodium berghei. Briefly: Luciferase/luciferin-expressing antifolate-resistant parasites were used to infect a culture of HepG2 cells that were pre-incubated with compounds. Infected hepatocytes emit light due to the luciferase reaction. Assay results are presented as the percent inhibition of light emission compared to control. […]. It is filed as functional. The following applies: sporozoite; for IC90: read-out: LUCIFERASE INFECTION ASSAY - IC90.

Where [1] appears, read: read-out: LUCIFERASE INFECTION ASSAY - IC50.

For `COc1ccc(Nc2nnc(SC(C)C(=O)Nc3sccc3C(N)=O)s2)cc1` (stereo not given), the IC90 was over 10 µM. Besides, under setting [1], the IC50 was over 10 µM.

In the case of `CN(C)c1ccc(-c2cnc3cnc(-c4ccccc4N(C)C)cn23)cc1`, the IC90 came out at 0.0642 µM. The IC50 (HEPG2TOX_HILL_SLOPE 0.323, HEPG2TOX_R_SQUARED 0.566, PBLUC_HILL_SLOPE 1.8, PBLUC_R_SQUARED 0.657, read-out: LUCIFERASE INFECTION ASSAY - IC50) is 0.0189 µM.

Take `C(=C(c1nc2ccccc2s1)c1nc2ccccc2s1)c1ccc(N2CCOCC2)cc1`: the IC90 stood at 3.63 µM. The IC50 under setting [1] turned out to be 0.749 µM.

Consider `Cc1ccc(CN(C)C(=O)NNC(=O)c2ccccc2)c(C)c1`, for which the IC90 was over 10 µM. The IC50 under setting [1] is over 10 µM.

For the compound `COc1ccc(Cc2nn3c(C(=S)NCCCN4CCOCC4)c(-c4ccc(Cl)cc4)c4c3n2CCCC4)cc1`, the 90% effect concentration (IC90) was over 10 µM. Also, the IC50 (PBLUC_HILL_SLOPE 10, PBLUC_R_SQUARED 0.392, read-out: LUCIFERASE INFECTION ASSAY - IC50) was determined as 8.06 µM.

In the case of `O=C(NC1CCS(=O)(=O)c2ccccc21)C1CCN(c2ncc(C(F)(F)F)cc2Cl)CC1` (stereo not given), the IC90 was over 10 µM. Moreover, the IC50 under setting [1] was over 10 µM.

Turning to `O=C(/C=C/c1ccc(-n2cncn2)c(F)c1)c1cccc(OC(F)F)c1`, the IC90 worked out at 5.45 µM. For the same compound, the IC50 (FFLUC_HILL_SLOPE 115, FFLUC_R_SQUARED 0.0591, PBLUC_HILL_SLOPE 174, PBLUC_R_SQUARED 0.383, read-out: LUCIFERASE INFECTION ASSAY - IC50) came to 5.39 µM.

Turning to `CC1=NN(c2ccc(C)cc2)C(=O)C1=C1SCCS1`, the IC90 was over 11.4 µM. Besides, the half-inhibitory concentration (IC50) under setting [1] was found to be 1.99 µM.

As to `CC1Cc2ccccc2N1C(=O)COC(=O)c1ccc([N+](=O)[O-])cc1` (stereo not given), the IC90 is over 10 µM. The IC50 under setting [1] is over 10 µM.

As to `Oc1c(Cl)cc(Cl)cc1/C=N/NC(=S)NC1CCCCC1`, the IC90 amounted to 9.37 µM. Under “HEPG2TOX_HILL_SLOPE 8.84, HEPG2TOX_R_SQUARED 0.571, PBLUC_HILL_SLOPE 15.3, PBLUC_R_SQUARED 0.312, read-out: LUCIFERASE INFECTION ASSAY - IC50”, the IC50 worked out at 8.11 µM.

Consider `COc1cc(-c2ccc3ncc(-c4cccc(OC(F)(F)F)c4)n3n2)cc(OC)c1OC`, for which the IC90 is 3.72 µM. Besides, where the note is “PBLUC_HILL_SLOPE 15.5, PBLUC_R_SQUARED 0.302, read-out: LUCIFERASE INFECTION ASSAY - IC50”, the IC50 came out at 3.23 µM.

Consider `COc1ccc(/C=C(/C(=O)Nc2ccc(Cl)cc2)c2nc3ccccc3s2)cc1O`, for which the IC90 turned out to be 4.29 µM. Besides, under “HEPG2TOX_HILL_SLOPE 8.13, HEPG2TOX_R_SQUARED 0.744, PBLUC_HILL_SLOPE 10.1, PBLUC_R_SQUARED 0.615, read-out: LUCIFERASE INFECTION ASSAY - IC50”, the IC50 is 3.45 µM.

As to `Cc1ccccc1-c1cn2c(-c3ccc(Cl)cc3)cnc2cn1`, the IC90 was found to be 5.18 µM. For the same compound, the IC50 (PBLUC_HILL_SLOPE 7.25, PBLUC_R_SQUARED 0.317, read-out: LUCIFERASE INFECTION ASSAY - IC50) turned out to be 3.83 µM.

As to `O=C(N/N=C/c1ccccc1C(F)(F)F)c1[nH]c2ccccc2c1-c1ccccc1`, the IC90 came to 1.07 µM. Besides, the IC50 (FFLUC_HILL_SLOPE 16.3, FFLUC_R_SQUARED 0.334, HEPG2TOX_HILL_SLOPE 1.94, HEPG2TOX_R_SQUARED 0.976, PBLUC_HILL_SLOPE 7.87, PBLUC_R_SQUARED 0.839, read-out: LUCIFERASE INFECTION ASSAY - IC50) came out at 0.813 µM.

Take `CCCCN(CC(=O)N1CCCC(c2nc3ccccc3s2)C1)Cc1nc(=O)c2ccccc2[nH]1` (stereo not given): the IC90 is over 10 µM. Moreover, the IC50 (PBLUC_HILL_SLOPE 3.32, PBLUC_R_SQUARED 0.747, read-out: LUCIFERASE INFECTION ASSAY - IC50) was determined as 6.35 µM.

On to `OC(CSc1nnc(CNc2cccc(C(F)(F)F)c2)n1C1CCCCC1)c1ccccc1` (stereo not given), for which the IC90 is over 10 µM. For the setting “HEPG2TOX_HILL_SLOPE 0.64, HEPG2TOX_R_SQUARED 0.795, PBLUC_HILL_SLOPE 0.508, PBLUC_R_SQUARED 0.492, read-out: LUCIFERASE INFECTION ASSAY - IC50”, the IC50 amounted to 1.13 µM.

Consider `COc1ccc(OCCN2CCN(c3ccnc4cc(Cl)ccc34)CC2)cc1`, for which the IC90 was over 10 µM. For the same compound, the IC50 (HEPG2TOX_HILL_SLOPE 3.33, HEPG2TOX_R_SQUARED 0.981, PBLUC_HILL_SLOPE 2.57, PBLUC_R_SQUARED 0.319, read-out: LUCIFERASE INFECTION ASSAY - IC50) came out at 5.62 µM.

Take `O=C(Nc1nc2ccccc2[nH]1)c1ccc(-c2ccc(F)cc2)s1`: the IC90 was 5.74 µM. The IC50 (PBLUC_HILL_SLOPE 3.71, PBLUC_R_SQUARED 0.757, read-out: LUCIFERASE INFECTION ASSAY - IC50) stood at 3.18 µM.

As to `CCc1cccc2c(C(=O)COC(=O)C34CC5CC(CC(O)(C5)C3)C4)c[nH]c12`, the IC90 turned out to be 4.59 µM. Moreover, for the setting “HEPG2TOX_HILL_SLOPE 2.99, HEPG2TOX_R_SQUARED 0.981, PBLUC_HILL_SLOPE 3.51, PBLUC_R_SQUARED 0.785, read-out: LUCIFERASE INFECTION ASSAY - IC50”, the IC50 is 2.46 µM.

For the compound `Cc1ccc(-c2nn(-c3ccccc3)cc2/C=C/C(=O)NC2CCN(Cc3ccccc3)CC2)cc1`, the IC90 amounted to 9.38 µM. In addition, the IC50 (PBLUC_HILL_SLOPE 22.5, 12.9, PBLUC_R_SQUARED 0.0358, 0.549, read-out: LUCIFERASE INFECTION ASSAY - IC50) stood at 8.22 µM.

`CCOC(=O)Nc1cccc(N)c1C`: the IC90 was over 10 µM. The IC50 under setting [1] is over 10 µM.

Turning to `COc1ccc(CCN2CSC(=S)N(CCc3ccc(OC)c(OC)c3)C2)cc1OC`, the IC90 is over 7.13 µM. Also, the IC50 under setting [1] is over 7.13 µM.

As for `CC(=O)Nc1ccc(S(=O)(=O)N2CCCc3cc(C)ccc32)cc1`, the IC90 is over 10 µM. The IC50 (HEPG2TOX_HILL_SLOPE 2.72, HEPG2TOX_R_SQUARED 0.907, PBLUC_HILL_SLOPE 2.8, PBLUC_R_SQUARED 0.127, read-out: LUCIFERASE INFECTION ASSAY - IC50) is 5.79 µM.

With `Cc1ccc(C)c(Oc2ccc(NC(=O)Nc3ccc(SC(F)(F)F)cc3)cn2)c1`, the IC90 is 2.68 µM. For the same compound, for the setting “FFLUC_HILL_SLOPE 0.447, FFLUC_R_SQUARED 0.395, HEPG2TOX_HILL_SLOPE 4.72, HEPG2TOX_R_SQUARED 0.964, PBLUC_HILL_SLOPE 32.1, PBLUC_R_SQUARED 0.384, read-out: LUCIFERASE INFECTION ASSAY - IC50”, the IC50 was found to be 2.5 µM.

Regarding `Cc1cccn2c(=O)cc(CN3C(=O)NC(C)(c4ccc(F)cc4)C3=O)nc12` (stereo not given), the IC90 was over 2 µM. Besides, the IC50 (HEPG2TOX_HILL_SLOPE 5.95, HEPG2TOX_R_SQUARED 0.496, PBLUC_HILL_SLOPE 2.16, PBLUC_R_SQUARED 0.177, read-out: LUCIFERASE INFECTION ASSAY - IC50) was 1.96 µM.

As to `O=C1c2ccccc2O[C@@H](c2ccc([N+](=O)[O-])cc2)[C@@H]1O`, the IC90 was over 11.6 µM. Also, the IC50 (PBLUC_HILL_SLOPE 15.1, PBLUC_R_SQUARED 0.277, read-out: LUCIFERASE INFECTION ASSAY - IC50) was 10.8 µM.

For the compound `Cc1ccccc1C(C)NC(=O)c1c[nH]c(=S)n1-c1ccccc1` (stereo not given), the IC90 is over 10 µM. The IC50 under setting [1] is over 10 µM.

Consider `O=C(Nc1cc(Cl)cc(Cl)c1)c1cc(Br)ccc1O`, for which the IC90 was found to be 1.35 µM. Besides, the IC50 (HEPG2TOX_HILL_SLOPE 1.83, HEPG2TOX_R_SQUARED 0.974, PBLUC_HILL_SLOPE 1.75, PBLUC_R_SQUARED 0.827, read-out: LUCIFERASE INFECTION ASSAY - IC50) stood at 0.385 µM.

On to `O=C(NCc1ccco1)/C(=C/c1cccc(C(F)(F)F)c1)c1nc2ccccc2[nH]1`, for which the IC90 was found to be 7.5 µM. Besides, the IC50 (FFLUC_HILL_SLOPE 10.6, FFLUC_R_SQUARED 0.24, HEPG2TOX_HILL_SLOPE 4.32, HEPG2TOX_R_SQUARED 0.946, PBLUC_HILL_SLOPE 6.31, PBLUC_R_SQUARED 0.466, read-out: LUCIFERASE INFECTION ASSAY - IC50) amounted to 5.3 µM.

For the compound `CC(C)(C)c1ccc(C(=O)NC(=S)NNC(=O)c2cccc([N+](=O)[O-])c2)cc1`, the IC90 turned out to be 3.57 µM. The IC50 (PBLUC_HILL_SLOPE 3.29, PBLUC_R_SQUARED 0.591, read-out: LUCIFERASE INFECTION ASSAY - IC50) is 1.83 µM.

In the case of `CCOC(=O)Cc1csc(SCC(=O)c2cc(C)n(-c3ccc4c(c3)OCO4)c2C)n1`, the IC90 is over 10 µM. The IC50 (PBLUC_HILL_SLOPE 1.81, PBLUC_R_SQUARED 0.311, read-out: LUCIFERASE INFECTION ASSAY - IC50) worked out at 4.63 µM.

As to `CN1CCC2(CC1)CC(Nc1ccc(C(F)(F)F)cc1[N+](=O)[O-])c1ccccc1O2` (stereo not given), the IC90 is over 10 µM. Also, the IC50 (PBLUC_HILL_SLOPE 1.75, PBLUC_R_SQUARED 0.131, read-out: LUCIFERASE INFECTION ASSAY - IC50) was over 10 µM.

For the compound `O=C(C1CC1)N1CCc2nc(NCc3cccc(Oc4ccccc4)c3)ncc2C1`, the IC90 is 7.02 µM. For the same compound, the IC50 (HEPG2TOX_HILL_SLOPE 1.68, HEPG2TOX_R_SQUARED 0.88, PBLUC_HILL_SLOPE 2.35, PBLUC_R_SQUARED 0.234, read-out: LUCIFERASE INFECTION ASSAY - IC50) is 2.75 µM.

Turning to `CC1(C)CC(=O)C/C(=N\Nc2nc(C(Cl)(Cl)Cl)nc3ccccc23)C1`, the 90% effect concentration (IC90) was over 10 µM. The IC50 (HEPG2TOX_HILL_SLOPE 0.517, HEPG2TOX_R_SQUARED 0.271, PBLUC_HILL_SLOPE 3.75, PBLUC_R_SQUARED 0.163, read-out: LUCIFERASE INFECTION ASSAY - IC50) worked out at 9.3 µM.

For `COc1ccccc1-c1cc(NC(C)=O)c2ncc(-c3cc(OC)c(OC)c(OC)c3)n2c1`, the IC90 worked out at 2.96 µM. Besides, the IC50 (HEPG2TOX_HILL_SLOPE 2.18, HEPG2TOX_R_SQUARED 0.547, PBLUC_HILL_SLOPE 12.3, PBLUC_R_SQUARED 0.226, read-out: LUCIFERASE INFECTION ASSAY - IC50) was determined as 2.47 µM.

The term IC50 denotes the point on the concentration scale where inhibition reaches its midpoint. Usually IC90 stands for the point of the concentration-response curve where the effect stands at 90%.
